Test results taken from patent publication US5204352A, “Compounds exhibiting anti-parasitic activity and a method for their use” (The United States of America as represented by the …, priority 1987, dated 1993).
“And” between values parts separate entries of the source, which are not always exact repeats. Equal values may be shown once.

System: Trypanosoma rhodesiense
Assay: In vivo trypanocidal activity in infected mice (protocol based on Rane et al.)
Set-up: Activity at dosage, value in parentheses (increase in survival): unit not given here
Conditions: for Activity at dosage, value in parentheses (increase in survival): peritoneal (Table 2)
Procedure: The compounds of the present invention were evaluated biologically in vivo with groups of 5 mice at various dose levels. Unless otherwise indicated, the data are for subcutaneous administration. Dose levels marked with an asterisk are for peritoneal administration in a HEC+T medium. In addition, Table 2 present results of peritoneal administration with substituted quanylhydrazones. The biological evaluation was done according to a standard protocol based on the method described by Rane et al., Amer. J. Trop. Med Hyg. 25:395 (1976). […]

[1] = 106* mg/kg, peritoneal in HEC+T medium (Table I)
[2] = 424* mg/kg, peritoneal in HEC+T medium (Table I)

Compound: C[n+]1ccc(COc2ccc(C=NNC3=NCCN3)cc2)cc1 [BL12129]
- Increase in survival (3.3 mg/kg, subcutaneous): 6.8 days
- Trypanocidal activity, cures (3.3 mg/kg, subcutaneous): 1/5
- Increase in survival (13 mg/kg, subcutaneous): 5.0 days
- Trypanocidal activity, cures (13 mg/kg, subcutaneous): 8/10

Compound: CN=C(N)NN=Cc1ccc(-c2cn3ccccc3[n+]2C)cc1 [BK46200]
- Trypanocidal activity, cures (0.85-1.66 mg/kg, (M), subcutaneous): 5/5
- Trypanocidal activity, cures (3.33-6.65 mg/kg, (F), subcutaneous): 5/5

Compound: CC(=O)Nc1ccc(-c2cn3cc(C)ccc3[n+]2C)cc1 [BJ84938]
- Increase in survival (106 mg/kg, subcutaneous): 1.3 days
- Trypanocidal activity, cures (106 mg/kg, subcutaneous): 1/10
- Increase in survival (212 mg/kg, subcutaneous): 5.9 days
- Trypanocidal activity, cures (212 mg/kg, subcutaneous): 1/5
- Increase in survival (424 mg/kg, subcutaneous): 8.5 days
- Trypanocidal activity, cures (424 mg/kg, subcutaneous): 7/10

Compound: C[n+]1c(-c2ccc(C=NNC(N)=O)cc2)cn2ccccc21 [BJ90730]
- Increase in survival (26 mg/kg, subcutaneous): 7.7 days
- Trypanocidal activity, cures (26 mg/kg, subcutaneous): 1/5
- Increase in survival (106 mg/kg, subcutaneous): 10.9 days
- Trypanocidal activity, cures (106 mg/kg, subcutaneous): 4/5
- Increase in survival [1]: 1.9 days
- Trypanocidal activity, cures [1]: 1/10
- Increase in survival [2]: 4.8 days
- Trypanocidal activity, cures [2]: 3/10

Compound: CC(=O)Nc1ccc(-c2cn3c(C)cc(C)cc3[n+]2C)cc1 [BJ90703]
- Increase in survival (26 mg/kg, subcutaneous): 8.9 days
- Trypanocidal activity, cures (26 mg/kg, subcutaneous): 1/5
- Increase in survival (106 mg/kg, subcutaneous): 2.9 days
- Trypanocidal activity, cures (106 mg/kg, subcutaneous): 4/5
- Increase in survival (424 mg/kg, subcutaneous): 9.4 days
- Trypanocidal activity, cures (424 mg/kg, subcutaneous): 3/5
- Increase in survival [2]: 3.4 days
- Trypanocidal activity, cures [2]: 1/5

Compound: C[n+]1c(-c2ccc(C=NO)cc2)cn2ccccc21 [BJ90712]
- Increase in survival (106 mg/kg, subcutaneous): 4.2 days
- Trypanocidal activity, cures (106 mg/kg, subcutaneous): 2/5

Compound: CC(=O)Nc1ccc(-c2cn3ccc4ccccc4c3[n+]2C)cc1 [BJ83235]
- Increase in survival (53 mg/kg, subcutaneous): 1.7 days
- Trypanocidal activity, cures (53 mg/kg, subcutaneous): 1/5
- Increase in survival (212 mg/kg, subcutaneous): 2.9 days
- Trypanocidal activity, cures (212 mg/kg, subcutaneous): 4/5

Compound: C[n+]1c(COc2ccc(C=NNC(=N)NO)cc2)cn2ccccc21 [BK75087]
- Increase in survival (0.2 mg/kg, subcutaneous): 5.9 days
- Trypanocidal activity, cures (0.2 mg/kg, subcutaneous): 2/5
- Increase in survival (0.4 mg/kg, subcutaneous): 10 days
- Trypanocidal activity, cures (0.4 mg/kg, subcutaneous): 3/5
- Trypanocidal activity, cures (0.8 mg/kg, subcutaneous): 10/10
- Trypanocidal activity, cures (6.6 mg/kg, subcutaneous): 5/5

Compound: C[n+]1c(-c2ccc(C=CC=NNC(=N)N)cc2)cn2ccccc21 [BL07815]
- Trypanocidal activity, cures (1.6 mg/kg, subcutaneous): 0/10
- Trypanocidal activity, cures (3.3 mg/kg, subcutaneous): 5/5
- Trypanocidal activity, cures (6.6 mg/kg, subcutaneous): 5/5
- Trypanocidal activity, cures (13 mg/kg, subcutaneous): 10/10
- Trypanocidal activity, cures (26 mg/kg, subcutaneous): 15/15
- Trypanocidal activity, cures (53 mg/kg, subcutaneous): 5/5
- Trypanocidal activity, cures (106 mg/kg, subcutaneous): 10/10

Compound: C[n+]1c(-c2ccc(C(N)=NO)cc2)cn2cc(Cl)ccc21 [BK46193]
- Increase in survival (106 mg/kg, subcutaneous): 5.2 days
- Trypanocidal activity, cures (106 mg/kg, subcutaneous): 1/5
- Increase in survival (212 mg/kg, subcutaneous): 2.9 days
- Trypanocidal activity, cures (212 mg/kg, subcutaneous): 4/5

Compound: C[n+]1c(-c2ccc(C(=N)N)cc2)cn2ccsc21 [BK21874]
- Increase in survival (26.5 mg/kg, subcutaneous): 3.6 days
- Trypanocidal activity, cures (26.5 mg/kg, subcutaneous): 1/10
- Increase in survival (53 mg/kg, subcutaneous): 2.5 days
- Trypanocidal activity, cures (53 mg/kg, subcutaneous): 2/5
- Increase in survival (106 mg/kg, subcutaneous): 12.9 days
- Trypanocidal activity, cures (106 mg/kg, subcutaneous): 9/10
- Trypanocidal activity, cures (212 mg/kg, subcutaneous): 5/5

Compound: C[n+]1c(C=Cc2ccc(C=NNC(=N)N3CCCC3)cc2)cn2ccccc21 [BL12165]
- Increase in survival (1.6 mg/kg, subcutaneous): 5.2 days
- Trypanocidal activity, cures (1.6 mg/kg, subcutaneous): 6/10
- Increase in survival (3.3 mg/kg, subcutaneous): 12.3 days
- Trypanocidal activity, cures (3.3 mg/kg, subcutaneous): 2/5
- Trypanocidal activity, cures (13 mg/kg, subcutaneous): 10/10
- Trypanocidal activity, cures (26 mg/kg, subcutaneous): 15/15

Compound: C[n+]1c(COc2ccc(C(=N)N)cc2)cn2ccccc21 [BK65330]
- Increase in survival (13.3 mg/kg, subcutaneous): 12 days
- Trypanocidal activity, cures (13.3 mg/kg, subcutaneous): 3/5

Compound: C[n+]1c(-c2ccc(C(N)=S)cc2)cn2ccccc21 [BK11743]
- Increase in survival (6.65 mg/kg, subcutaneous): 2.7 days
- Trypanocidal activity, cures (6.65 mg/kg, subcutaneous): 2/10
- Increase in survival (13.3 mg/kg, subcutaneous): 3.3 days
- Trypanocidal activity, cures (13.3 mg/kg, subcutaneous): 1/10
- Increase in survival (26 mg/kg, subcutaneous): 4.0 days
- Trypanocidal activity, cures (26 mg/kg, subcutaneous): 3/15
- Trypanocidal activity, cures (53 mg/kg, subcutaneous): 5/5
- Increase in survival (106 mg/kg, subcutaneous): 3.2 days
- Trypanocidal activity, cures (106 mg/kg, subcutaneous): 5/10
- Increase in survival (212 mg/kg, subcutaneous): 17.0 days
- Trypanocidal activity, cures (212 mg/kg, subcutaneous): 4/5

Compound: C[n+]1c(-c2ccc(C=NNC(=N)N)cc2)c([N+](=O)[O-])n2ccccc21 [BK47985]
- Increase in survival (1.6 mg/kg, subcutaneous): 7.0 days
- Trypanocidal activity, cures (1.6 mg/kg, subcutaneous): 3/10
- Trypanocidal activity, cures (3.3 mg/kg, subcutaneous): 5/5
- Increase in survival (6.6 mg/kg, subcutaneous): 24.0 days
- Trypanocidal activity, cures (6.6 mg/kg, subcutaneous): 4/5

Compound: C[n+]1cccc(COc2ccc(C=NNC(=N)N3CCCC3)cc2)c1 [BL10027]
- Increase in survival (0.8 mg/kg, subcutaneous): 5.2 days
- Trypanocidal activity, cures (0.8 mg/kg, subcutaneous): 7/10
- Trypanocidal activity, cures (3.3 mg/kg, subcutaneous): 5/5
- Trypanocidal activity, cures (13 mg/kg, subcutaneous): 5/5

Compound: CC(=O)Nc1ccc(-c2cn3cc(I)ccc3[n+]2C)cc1 [BJ83306]
- Increase in survival (106 mg/kg, subcutaneous): 2.3 days
- Trypanocidal activity, cures (106 mg/kg, subcutaneous): 3/10
- Increase in survival (212 mg/kg, subcutaneous): 3.9 days
- Trypanocidal activity, cures (212 mg/kg, subcutaneous): 1/5
- Increase in survival (424 mg/kg, subcutaneous): 6.5 days
- Trypanocidal activity, cures (424 mg/kg, subcutaneous): 4/10

Compound: C[n+]1c(-c2ccc(C=NNc3ncn[nH]3)cc2)cn2ccsc21 [BK2403S]
- Increase in survival (6.65 mg/kg, subcutaneous): 5.0 days
- Trypanocidal activity, cures (6.65 mg/kg, subcutaneous): 4/5
- Increase in survival (13.3 mg/kg, subcutaneous): 5.0 days
- Trypanocidal activity, cures (13.3 mg/kg, subcutaneous): 6/10
- Increase in survival (26.5 mg/kg, subcutaneous): 7.3 days
- Trypanocidal activity, cures (26.5 mg/kg, subcutaneous): 12/15
- Increase in survival (53 mg/kg, subcutaneous): 12.5 days
- Trypanocidal activity, cures (53 mg/kg, subcutaneous): 3/5
- Increase in survival (106 mg/kg, subcutaneous): 7.7 days
- Trypanocidal activity, cures (106 mg/kg, subcutaneous): 7/10
- Increase in survival (212 mg/kg, subcutaneous): 5.0 days
- Trypanocidal activity, cures (212 mg/kg, subcutaneous): 3/5

Compound: CCN=C(NCC)NN=Cc1ccc(OCc2n(C)cc[n+]2C)cc1 [BL28038]
- Trypanocidal activity, cures (13 mg/kg, subcutaneous): 3/5

Compound: Cc1ccc2n(c1)cc(-c1ccc(C(N)=NO)cc1)[n+]2C [BK13087]
- Increase in survival (53 mg/kg, subcutaneous): 2.3 days
- Trypanocidal activity, cures (53 mg/kg, subcutaneous): 2/5

Compound: C[n+]1c(-c2ccc(C(N)=NO)cc2)cn2ccsc21 [BK16499]
- Increase in survival (26 mg/kg, subcutaneous): 2.7 days
- Trypanocidal activity, cures (26 mg/kg, subcutaneous): 2/10
- Increase in survival (53 mg/kg, subcutaneous): 4.7 days
- Trypanocidal activity, cures (53 mg/kg, subcutaneous): 2/10

Compound: CC(=O)Nc1ccc(-c2cn3ccccc3[n+]2C)cc1 [BJ36718]
- Increase in survival (53 mg/kg, subcutaneous): 8.0 days
- Trypanocidal activity, cures (53 mg/kg, subcutaneous): 4/5
- Increase in survival (106 mg/kg, subcutaneous): 4.4 days
- Trypanocidal activity, cures (212 mg/kg, subcutaneous): 3/5 and 4/5
- Increase in survival [1]: 7.0 days
- Trypanocidal activity, cures [1]: 7/10
- Increase in survival [2]: 11.0 days
- Trypanocidal activity, cures [2]: 8/10

Compound: C=CC[n+]1c(-c2ccc(NC(C)=O)cc2)cn2cc(C)ccc21 [BK02557]
- Increase in survival [2]: 3.8 days
- Trypanocidal activity, cures [2]: 2/10

Compound: C[n+]1c(-c2ccc(C=NNC(=N)N3CCOCC3)cc2)cn2ccccc21 [BK51890]
- Activity at dosage, value in parentheses (increase in survival) (0.8 mg/kg): 1.7
- Activity at dosage, value in parentheses (increase in survival) (1.7 mg/kg): 10.9
- Activity at dosage, value in parentheses (increase in survival) (26 mg/kg): 5.9
- Increase in survival (1.66* mg/kg, peritoneal in HEC+T medium (Table I)): 10.9 days
- Trypanocidal activity, cures (3.3* mg/kg, peritoneal in HEC+T medium (Table I)): 5/5
- Trypanocidal activity, cures (6.6* mg/kg, peritoneal in HEC+T medium (Table I)): 5/5
- Trypanocidal activity, cures (13* mg/kg, peritoneal in HEC+T medium (Table I)): 5/5
- Trypanocidal activity, cures (26* mg/kg, peritoneal in HEC+T medium (Table I)): 9/10
- Trypanocidal activity, cures [1]: 5/5
- Trypanocidal activity, cures [2]: 5/5

Compound: Cn1cc(-c2ccc(C=NNC(N)=O)cc2)[n+](C)c1 [BK23994]
- Increase in survival (424 mg/kg, subcutaneous): 5.8 days

Compound: CN=C(N)NN=Cc1ccc(-c2c([N+](=O)[O-])n3ccccc3[n+]2C)cc1 [BK47958]
- Increase in survival (1.66 mg/kg, subcutaneous): 3.0 days
- Trypanocidal activity, cures (1.66 mg/kg, subcutaneous): 8/10

Compound: CN=C(N)NN=Cc1ccc(-c2cn3ccsc3[n+]2C)cc1 [BK47967]
- Trypanocidal activity, cures (6.66 mg/kg, subcutaneous): 5/5

Compound: C=CC[n+]1c(-c2ccc(NC(C)=O)cc2)cn2ccccc21 [BJ58296]
- Increase in survival (26.5 mg/kg, subcutaneous): 5.0 days
- Trypanocidal activity, cures (26.5 mg/kg, subcutaneous): 7/10
